Results from article PMC4891657, “Orexin 2 Receptor Antagonism is Sufficient to Promote NREM and REM Sleep from Mouse to Man” (Scientific Reports, 2016).
Where two headings read alike, the source gives them in different places.

Experiments:
OX2R = biological target: T1, OX2R (Rattus norvegicus, UniProt P56719); experiment: Radio-ligand displacement binding, CHO-K1 membranes, rat OX2R; settings: for fold OX2R selectivity (Ki): OX1R Ki / OX2R Ki; for Ki: read-out: OX2R affinity (Ki)
T1 construct: expressed in transfected cells; host or cells: CHO-K1
T1 sequence (P56719 1-460): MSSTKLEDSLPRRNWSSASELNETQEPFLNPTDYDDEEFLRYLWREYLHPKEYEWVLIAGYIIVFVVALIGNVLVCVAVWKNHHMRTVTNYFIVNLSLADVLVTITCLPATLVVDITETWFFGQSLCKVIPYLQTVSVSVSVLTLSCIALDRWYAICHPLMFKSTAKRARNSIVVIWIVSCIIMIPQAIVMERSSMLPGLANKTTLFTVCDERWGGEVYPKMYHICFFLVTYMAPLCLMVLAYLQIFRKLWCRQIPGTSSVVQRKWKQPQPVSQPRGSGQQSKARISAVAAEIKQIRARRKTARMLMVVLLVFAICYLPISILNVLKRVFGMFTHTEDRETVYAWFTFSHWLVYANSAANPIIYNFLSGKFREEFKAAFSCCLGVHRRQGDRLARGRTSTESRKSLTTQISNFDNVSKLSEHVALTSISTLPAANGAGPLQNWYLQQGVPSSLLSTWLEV
Description: (§1) MK-1064 was evaluated for its ability to inhibit orexin-peptide-A-induced calcium mobilization in CHO cell lines separately expressing OX1R and OX2R from mice, rats, rabbits, dogs, rhesus monkeys and humans.
(§2) Binding and functional blockade of OX1R and OX2R with MK-1064 relative to other 2-SORAs and the DORA, MK-6096, were assessed using membranes from Chinese hamster ovary (CHO)-K1 cells (American Type Tissue Collection, Manassas, VA) transfected to express human, mouse, rat, rabbit, dog, or rhesus monkey OX1R or OX2R receptors, as described previously. The kinetics of binding to human OX2R was assessed by radioligand displacement on CHO-K1 cells expressing the receptor. […] The ON rate analysis was performed by presoaking GF/B filters in 0.3% polyethyleneimine (Sigma) using a Skatron 12-well cell harvester and cold buffer at the indicated time points after addition. For OFF rate determination, binding reactions were allowed to proceed to equilibrium and terminated with 1000x [Kd] of unlabeled antagonist and filtered as above at pre-determined time points. Ultima Gold^TM (PerkinElmer 6013327) scintillation cocktail was added to each filter disc and counted on a PerkinElmer TriCarb 2910 scintillation counter. Data were analyzed using GraphPad® Prism v 6.04 (San Diego, CA, USA). The KON rate was determined according to the equation, KON = (KOBS − KOFF)/[ligand].

[1] = Plasma exposure in dogs after oral dosing; assay type: in vivo, dog; settings: for Cmax / Tmax / AUC(0-t): beagle, dog, plasma
sleep/wake stages = experiment: Polysomnography in telemetered dogs; assay type: in vivo, dog
Description: The mean time spent in sleep stages was determined in radio-telemetry–implanted mice, rats, and dogs, as described previously[1][14][40][42]. Continuous PSG recordings were performed following oral MK-1064 or vehicle (20% vitamin E d-alpha tocopheryl polyethylene glycol 1000 succinate [TPGS]) administration. In rodents, electrocorticogram (ECoG) and electromyogram (EMG) and locomotor activity measured via radio-telemetry were scored in 10 second epochs to define light sleep (LS; no movement, moderate EMG tone, theta with <50% delta ECoG [0.5–4 Hz]), slow wave sleep (SWS; no gross movement, reduced EMG, >50% delta ECoG) and rapid eye movement sleep (REM; no movement, little to no EMG activity, primarily theta ECoG [4–7 Hz] activity)[42]. Scored data were then grouped and compiled according to condition (vehicle or compound treatment) averaged over the indicated times (30 minutes or 2 hours) and analyzed statistically as previously described[1][14][40][42] […]
Mean times in active wake, NREM I, NREM II, and REM sleep were monitored continuously. Vehicle and compound treatment conditions were consolidated into 24-hour periods for each animal, and the mean time spent in each sleep stage for the 2 hours following treatment was determined and significance determined by t-test.

OX1R = biological target: T2, OX1R (Rattus norvegicus, UniProt P56718); experiment: Radio-ligand displacement binding, CHO-K1 membranes, rat OX1R; settings: read-out: OX1R affinity (Ki)
T2 construct: expressed in transfected cells; host or cells: CHO-K1
T2 sequence (P56718 1-416): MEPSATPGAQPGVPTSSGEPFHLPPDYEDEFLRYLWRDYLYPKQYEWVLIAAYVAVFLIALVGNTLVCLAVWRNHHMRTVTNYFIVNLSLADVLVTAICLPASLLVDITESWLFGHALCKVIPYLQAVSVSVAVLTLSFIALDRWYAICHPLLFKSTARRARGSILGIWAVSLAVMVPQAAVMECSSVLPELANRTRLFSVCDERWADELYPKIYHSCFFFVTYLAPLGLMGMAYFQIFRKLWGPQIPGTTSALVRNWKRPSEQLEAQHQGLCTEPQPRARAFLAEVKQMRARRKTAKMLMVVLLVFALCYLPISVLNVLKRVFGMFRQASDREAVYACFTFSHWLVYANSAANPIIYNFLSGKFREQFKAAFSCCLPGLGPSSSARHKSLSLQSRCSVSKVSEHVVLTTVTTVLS
Description: as §1, §2

somnolence / alertness = experiment: Karolinska Sleepiness Scale and Bond and Lader VAS in healthy subjects; assay type: in vivo, human; settings: all single doses greater than 5 mg
Description: In the ascending single-dose study, doses of MK-1064 ranging from 5 to 250 mg corresponded with dose-dependent changes in measured plasma levels (Fig. 6a). […] The greatest effects were observed between 1 and 4 hours, and effects greatly diminished 8 hours following treatment, consistent with the time course of plasma concentrations of MK-1064.
Figure 6 MK-1064 dose-dependently promotes somnolence and attenuates arousal in healthy human subjects. (a) Plasma concentration of MK-1064 over time following administration of single doses of MK-1064 5–250 mg. (b) Somnolence, as measured by the KSS, and (c) alertness, as measured by the Bond and Lader VAS, over time following administration of single doses of MK-1064 (5–250 mg) or placebo in healthy human subjects (N = 20).
During each treatment period, blood was collected for PK analysis pre-dose and at time points up to 72 hours post-dose. MK-1064 plasma concentrations were determined by reverse phase high-performance liquid chromatography and detected with tandem mass spectrometry. The lower limit of quantitation was 1 ng/mL and the linear calibration range was 1–1000 ng/mL. PK parameters were calculated with WinNonLin 5.2.1. Values below the assay limit of quantification were indicated with a zero value. […]

SMILES | fold OX2R selectivity (Ki) (OX2R) | Ki (OX2R) | expected unbound drug levels at 1 hour (~Tmax) ([1]; 20 mg/kg oral) | Cmax ([1]; 1 mg/kg oral) | Tmax ([1]; 1 mg/kg oral) | AUC(0-t) ([1]; 1 mg/kg oral, read-out: AUC0–24) | Cmax ([1]; 20 mg/kg oral) | Tmax ([1]; 20 mg/kg oral) | AUC(0-t) ([1]; 20 mg/kg oral, read-out: AUC0-24) | active wake (with increases in NREM I, NREM II and REM sleep) (sleep/wake stages; 1 mg/kg oral, 1 hour following administration vs vehicle) | REM sleep in the hour following administration (sleep/wake stages; 20 mg/kg oral, vs vehicle, increased at several later time points) | Ki (OX1R) | subject-reported somnolence (KSS) and drowsiness (alertness VAS) (somnolence / alertness)
COc1ccc(CNC(=O)c2cc(-c3cncc(Cl)c3)cnc2-c2ccccn2)nc1OC [MK-1064, 5″-chloro-N-[(5,6-dimethoxypyridin-2-yl)methyl]-2,2′:5′, 3″-terpyridine-3′-carbo xamide] | [1288] fold | 0.83 nM | approximately 4.4 μM | 1 µM | 18 min | 3.4 µM·h | 15.3 µM | 48 min | 56.5 µM·h | Significant active wake reductions | not significantly increased | 1070 nM | Dose-dependent increases
COc1ccc(CNC(=O)c2cc(-c3cncc(C)c3)ncc2-c2nccs2)nc1OC [MK-3697] |  | 1.93 nM |  |  |  |  |  |  |  |  |  | 2390 nM | 
Cc1ccc(-c2ncccn2)c(C(=O)N2C[C@H](COc3ccc(F)cn3)CC[C@H]2C)c1 [MK-6096] | [11.4] fold | 0.22 nM |  |  |  |  |  |  |  |  |  | 2.5 nM | 
COc1ccc(CNC(=O)c2cc(-c3cc(Cl)cc(Cl)c3)cnc2-c2cccnc2)cc1OC [2-SORA-18] | [522] fold | 0.18 nM |  |  |  |  |  |  |  |  |  | 94 nM | 
COc1ccc(CNC(=O)c2cc(-c3cncc(C)c3)ncc2-c2ccccc2)nc1OC [2-SORA-7] | [11877] fold | 0.22 nM |  |  |  |  |  |  |  |  |  | 2610 nM | 
